Assay results from patent US6797694B2, “Chemical compounds having ion channel blocking activity for the treatment of immune dysfunction” (priority 1999, dated 2004).

Tested on: T cells
Assay: Inhibition of antigen (PPD) induced T cell proliferation, [3H]thymidine incorporation
Type: cell-based
Conditions: solvent control 26.1
Protocol: The chemical compounds used according to the invention prevent immunological proliferation by selective inhibition of the Ca^2+-activated K-channels in T- and B-lymphocytes. This effect may be verified using various proliferation assays. In this experiment the proliferative assay described by Ødum et al. [Ødum N, Kanner S B, Ledbetter J A, & Svejgaard A; J. Immunol. 1993 150 (12) 5289-5298] was used.
Assays were performed in culture medium (RPMI 1640; available from Gibco, Grand Island, N.Y.) supplemented with 10% pooled human serum, 2 mM L-glutamine, 100 μg/ml penicillin, and 100 μg/ml streptomycin (available from Novo Nordisk, Copenhagen, Denmark) in 96-well round bottom tissue culture plates (available from Nunc, Roskilde, Denmark) with a final volume of 200 μl.
T cells were pre-incubated for three hours with the test compounds before addition of antigen (PPD; Purified protein derivative, available from Statens Serum Institut, Denmark; 100 μg/ml). T cells were cultured at 5×10^4 cells/well for 144 hours. Twelve hours before harvest, [^3H]thymidine ([…]) was added. The cells were harvested onto glass fibre filters, and the [^3H]thymidine incorporation was measured in a scintillation counter. The results were expressed as mean counts per minute (cpm) from triplicate cultures.

## OC(c1ccccc1)(c1ccccc1)c1ccc(Cl)cc1 [A, (4-chlorophenyl-diphenyl)-carbinol]
Test compound 10 μM
  T Cell Proliferation: 19.8 cpm × 10^−3
Test compound 25 μM
  T Cell Proliferation: 18.1 cpm × 10^−3

## CC(=O)C(c1ccccc1)(c1ccccc1)c1ccccc1 [C, 1,1,1-triphenylacetone]
Test compound 10 μM
  T Cell Proliferation: 18 cpm × 10^−3
Test compound 25 μM
  T Cell Proliferation: 19 cpm × 10^−3
